Measurements: ChEMBL document CHEMBL2062394, “Azide-alkyne cycloaddition en route to novel 1H-1,2,3-triazole tethered isatin conjugates with in vitro cytotoxic evaluation” (Eur J Med Chem, 2012)
pIC50: −log10 of the molar value.

Experiments:
A549 [1] = assay: Growth inhibition of human A549 cells at 10 uM after 48 hrs by SRB assay; assay type: functional; settings: A549, 48 h, read-out: GI
A549 [2] = assay: Growth inhibition of human A549 cells at 50 uM after 48 hrs by SRB assay; assay type: functional; settings: A549, 48 h, read-out: GI
A549 [3] = assay: Growth inhibition of human A549 cells at 100 uM after 48 hrs by SRB assay; assay type: functional; settings: A549, 48 h, read-out: GI
PC-3 [4] = assay: Growth inhibition of human PC3 cells at 10 uM after 48 hrs by SRB assay; assay type: functional; settings: PC-3, 48 h, read-out: GI
PC-3 [5] = assay: Growth inhibition of human PC3 cells at 50 uM after 48 hrs by SRB assay; assay type: functional; settings: PC-3, 48 h, read-out: GI
PC-3 [6] = assay: Growth inhibition of human PC3 cells at 100 uM after 48 hrs by SRB assay; assay type: functional; settings: PC-3, 48 h, read-out: GI
THP-1 [7] = assay: Growth inhibition of human THP1 cells at 10 uM after 48 hrs by SRB assay; assay type: functional; settings: THP-1, 48 h, read-out: GI
THP-1 [8] = assay: Growth inhibition of human THP1 cells at 50 uM after 48 hrs by SRB assay; assay type: functional; settings: THP-1, 48 h, read-out: GI
THP-1 [9] = assay: Growth inhibition of human THP1 cells at 100 uM after 48 hrs by SRB assay; assay type: functional; settings: THP-1, 48 h, read-out: GI
Caco-2 [10] = assay: Growth inhibition of human Caco2 cells at 10 uM after 48 hrs by SRB assay; assay type: functional; settings: Caco-2, 48 h, read-out: GI
Caco-2 [11] = assay: Growth inhibition of human Caco2 cells at 50 uM after 48 hrs by SRB assay; assay type: functional; settings: Caco-2, 48 h, read-out: GI
Caco-2 [12] = assay: Growth inhibition of human Caco2 cells at 100 uM after 48 hrs by SRB assay; assay type: functional; settings: Caco-2, 48 h, read-out: GI
A549 [13] = assay: Growth inhibition of human A549 cells after 48 hrs by SRB assay; assay type: functional, cell-based; settings: for pIC50: A549, 48 h
PC-3 [14] = assay: Growth inhibition of human PC3 cells after 48 hrs by SRB assay; assay type: functional, cell-based; settings: for pIC50: PC-3, 48 h
THP-1 [15] = assay: Growth inhibition of human THP1 cells after 48 hrs by SRB assay; assay type: functional, cell-based; settings: for pIC50: THP-1, 48 h
Caco-2 [16] = assay: Growth inhibition of human Caco2 cells after 48 hrs by SRB assay; assay type: functional, cell-based; settings: for pIC50: Caco-2, 48 h

| pIC50 (A549 [13]) | pIC50 (PC-3 [14]) | pIC50 (THP-1 [15]) | pIC50 (Caco-2 [16]) | SMILES | inhibition of growth at 10 µM (A549 [1]) | inhibition of growth at 50 µM (A549 [2]) | inhibition of growth at 100 µM (A549 [3]) | inhibition of growth at 10 µM (PC-3 [4]) | inhibition of growth at 50 µM (PC-3 [5]) | inhibition of growth at 100 µM (PC-3 [6]) | inhibition of growth at 10 µM (THP-1 [7]) | inhibition of growth at 50 µM (THP-1 [8]) | inhibition of growth at 100 µM (THP-1 [9]) | inhibition of growth at 10 µM (Caco-2 [10]) | inhibition of growth at 50 µM (Caco-2 [11]) | inhibition of growth at 100 µM (Caco-2 [12]) | growth inhibition (GI) (A549 [13]) | growth inhibition (GI) (PC-3 [14]) | growth inhibition (GI) (THP-1 [15]) | growth inhibition (GI) (Caco-2 [16]) |
| --- | --- | --- | --- | --- | --- | --- | --- | --- | --- | --- | --- | --- | --- | --- | --- | --- | --- | --- | --- | --- |
| 5.58 | < 4.00 | 4.44 | < 4.00 | O=C1C(=O)N(CCn2cc(CN3C(=O)C(=O)c4cc(Cl)ccc43)nn2)c2ccc(F)cc21 | 64% | 73% | 97% | 0% | 4% | 9% | 20% | 70% | 92% | 2% | 12% | 30% | Dose-dependent effect | Dose-dependent effect | Dose-dependent effect | Dose-dependent effect |
| < 4.00 | 4.15 | 4.06 | < 4.00 | O=C1C(=O)N(CCn2cc(CN3C(=O)C(=O)c4ccccc43)nn2)c2ccc(F)cc21 | 6% | 17% | 32% | 0% | 32% | 82% | 8% | 15% | 90% | 0% | 1% | 10% | Dose-dependent effect | Dose-dependent effect | Dose-dependent effect | Dose-dependent effect |
| 4.79 | < 4.00 | 4.56 | < 4.00 | O=C1C(=O)N(CCn2cc(CN3C(=O)C(=O)c4cc(Br)ccc43)nn2)c2ccc(F)cc21 | 41% | 79% | 98% | 0% | 2% | 51% | 26% | 85% | 94% | 0% | 7% | 13% | Dose-dependent effect | Dose-dependent effect | Dose-dependent effect | Dose-dependent effect |
| 4.41 | 4.51 | 4.37 | < 4.00 | O=C1C(=O)N(CCn2cc(CN3C(=O)C(=O)c4cc([N+](=O)[O-])ccc43)nn2)c2ccccc21 | 13% | 96% | 98% | 24% | 97% | 99% | 11% | 97% | 100% | 0% | 4% | 18% | Dose-dependent effect | Dose-dependent effect | Dose-dependent effect | Dose-dependent effect |
| 4.03 | 4.02 | 4.06 | < 4.00 | O=C1C(=O)N(CCn2cc(CN3C(=O)C(=O)c4cc([N+](=O)[O-])ccc43)nn2)c2ccc(F)cc21 | 7% | 22% | 64% | 2% | 11% | 33% | 2% | 14% | 90% | 0% | 0% | 0% | Dose-dependent effect | Dose-dependent effect | Dose-dependent effect | Dose-dependent effect |
| 4.04 | < 4.00 | 4.08 | < 4.00 | O=C1C(=O)N(CCn2cc(CN3C(=O)C(=O)c4cc(F)ccc43)nn2)c2ccc(F)cc21 | 5% | 23% | 62% | 0% | 10% | 30% | 1% | 13% | 92% | 0% | 0% | 10% | Dose-dependent effect | Dose-dependent effect | Dose-dependent effect | Dose-dependent effect |
| 4.41 | 4.27 | 4.59 | < 4.00 | O=C1C(=O)N(CCn2cc(CN3C(=O)C(=O)c4cc([N+](=O)[O-])ccc43)nn2)c2ccc(Cl)cc21 | 11% | 80% | 99% | 30% | 44% | 72% | 29% | 82% | 88% | 17% | 21% | 33% | Dose-dependent effect | Dose-dependent effect | Dose-dependent effect | Dose-dependent effect |
| 4.84 | > 6.00 | 4.29 | < 4.00 | O=C1C(=O)N(CCn2cc(CN3C(=O)C(=O)c4cc(Br)ccc43)nn2)c2ccccc21 | 41% | 96% | 97% | 94% | 99% | 100% | 10% | 53% | 88% | 1% | 10% | 25% | Dose-dependent effect | Dose-dependent effect | Dose-dependent effect | Dose-dependent effect |
| 4.37 | 4.29 | 4.57 | 4.49 | O=C1C(=O)N(CCn2cc(CN3C(=O)C(=O)c4cc(Br)ccc43)nn2)c2ccc(Cl)cc21 | 10% | 83% | 98% | 29% | 43% | 70% | 28% | 82% | 90% | 36% | 57% | 68% | Dose-dependent effect | Dose-dependent effect | Dose-dependent effect | Dose-dependent effect |
| 4.30 | 4.07 | 4.41 | < 4.00 | Cc1ccc2c(c1)C(=O)C(=O)N2Cc1cn(CCN2C(=O)C(=O)c3cc(F)ccc32)nn1 | 8% | 57% | 99% | 0% | 31% | 48% | 14% | 88% | 89% | 0% | 15% | 44% | Dose-dependent effect | Dose-dependent effect | Dose-dependent effect | Dose-dependent effect |
| 4.41 | 4.52 | 4.40 | < 4.00 | O=C1C(=O)N(CCn2cc(CN3C(=O)C(=O)c4cc(F)ccc43)nn2)c2ccccc21 | 11% | 97% | 99% | 20% | 98% | 100% | 10% | 96% | 100% | 0% | 1% | 22% | Dose-dependent effect | Dose-dependent effect | Dose-dependent effect | Dose-dependent effect |
